Holding throughout (assay type): cell-based
The target of assay [1] is HER2 (A775_G776insYVMA) expressing Ba/F3 stable cell line (Homo sapiens, UniProt P04626, DUP772-775, cells depend on it). In words: Cellular proliferation (Alamar Blue) assay, HER2 A775_G776insYVMA Ba/F3. The following applies: 72 hr, read-out: YVMA IC50. A digest of the protocol:
(§1)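 Proliferation of mutant-dependent Ba/F3 lines is measured by Alamar Blue reduction over 3 hours, following a 72 hr incubation with test compound spanning 10-0.0005 μM final in threefold dilutions. Cells go in at 15,000 per well in RPMI containing 10% FBS the day before dosing.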
(Alamar Blue is a resazurin reagent that responds to reducing activity.)

Assay [2] has as its target EGFR(D770_N771insSVD) expressing Ba/F3 stable cell line (Homo sapiens, UniProt P00533, DUP768-770, cells depend on it). In words: Cellular proliferation (Alamar Blue) assay, EGFR D770_N771insSVD Ba/F3. The following applies: 72 hr, read-out: D770 IC50. In short, it runs like this:
as §1

The target of assay [3] is EGFR (H773insNPH) expressing Ba/F3 stable cell line (Homo sapiens, UniProt P00533, DUP771-773, cells depend on it). In words: Cellular proliferation (Alamar Blue) assay, EGFR H773insNPH Ba/F3. Particulars: 72 hr, read-out: NPH IC50. A digest of the protocol: as §1
Chain of EGFR (H773insNPH) expressing Ba/F3 stable cell line (P00533 with tags, fused parts or gaps DUP771-773): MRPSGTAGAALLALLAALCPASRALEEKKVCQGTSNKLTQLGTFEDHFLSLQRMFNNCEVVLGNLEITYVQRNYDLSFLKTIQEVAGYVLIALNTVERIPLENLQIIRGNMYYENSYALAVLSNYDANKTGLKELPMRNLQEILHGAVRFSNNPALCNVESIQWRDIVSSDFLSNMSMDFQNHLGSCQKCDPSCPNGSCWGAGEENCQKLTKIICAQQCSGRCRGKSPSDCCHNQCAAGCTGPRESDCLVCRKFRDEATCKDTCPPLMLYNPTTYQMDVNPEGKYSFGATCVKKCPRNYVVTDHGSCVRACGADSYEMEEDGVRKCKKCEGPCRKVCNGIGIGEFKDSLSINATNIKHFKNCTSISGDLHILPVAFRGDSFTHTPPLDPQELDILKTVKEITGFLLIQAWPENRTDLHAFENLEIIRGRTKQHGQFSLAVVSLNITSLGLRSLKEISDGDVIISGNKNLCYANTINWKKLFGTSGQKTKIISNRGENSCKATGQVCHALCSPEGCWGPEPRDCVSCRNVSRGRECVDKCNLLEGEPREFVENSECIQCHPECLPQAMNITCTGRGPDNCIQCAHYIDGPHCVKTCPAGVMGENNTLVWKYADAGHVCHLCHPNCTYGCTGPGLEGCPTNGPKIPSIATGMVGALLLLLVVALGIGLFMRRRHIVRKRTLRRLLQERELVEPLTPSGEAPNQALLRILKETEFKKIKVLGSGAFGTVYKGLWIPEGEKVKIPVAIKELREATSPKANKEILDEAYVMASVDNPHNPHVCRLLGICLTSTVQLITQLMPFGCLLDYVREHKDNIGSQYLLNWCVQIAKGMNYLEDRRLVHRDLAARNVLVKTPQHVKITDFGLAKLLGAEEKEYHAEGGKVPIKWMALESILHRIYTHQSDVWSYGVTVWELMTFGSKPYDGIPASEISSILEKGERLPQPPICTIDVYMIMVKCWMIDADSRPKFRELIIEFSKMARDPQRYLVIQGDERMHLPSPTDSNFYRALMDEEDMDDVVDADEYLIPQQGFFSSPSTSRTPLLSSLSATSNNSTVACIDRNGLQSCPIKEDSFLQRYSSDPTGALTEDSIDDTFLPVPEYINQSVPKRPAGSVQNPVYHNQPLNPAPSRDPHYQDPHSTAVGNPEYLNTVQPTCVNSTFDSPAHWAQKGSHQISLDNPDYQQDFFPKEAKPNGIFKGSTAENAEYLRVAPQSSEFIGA
In another assay the test system is A431 cells. In words: Cellular proliferation (Alamar Blue) assay, A431. Particulars: Homo sapiens.
Assay [4] concerns the target EGFR (A767_dupASV) expressing Ba/F3 stable cell line (Homo sapiens, UniProt P00533, DUP767-769, cells depend on it). Kind of assay: Cellular proliferation (Alamar Blue) assay, EGFR A767_dupASV Ba/F3. The following applies: 72 hr, read-out: A767 IC50. A digest of the protocol: as §1
Setting [5] is: A-431, A431 cells, Alamar Blue, 72 hr, read-out: A431 IC50.

A word on the IC50: it is the concentration that gives 50% inhibition.

Where two headings read alike, the source gives them in different places. A value given as a limit tells only on which side of the number the result lay.

Chain of EGFR(D770_N771insSVD) expressing Ba/F3 stable cell line (P00533 with tags, fused parts or gaps DUP768-770): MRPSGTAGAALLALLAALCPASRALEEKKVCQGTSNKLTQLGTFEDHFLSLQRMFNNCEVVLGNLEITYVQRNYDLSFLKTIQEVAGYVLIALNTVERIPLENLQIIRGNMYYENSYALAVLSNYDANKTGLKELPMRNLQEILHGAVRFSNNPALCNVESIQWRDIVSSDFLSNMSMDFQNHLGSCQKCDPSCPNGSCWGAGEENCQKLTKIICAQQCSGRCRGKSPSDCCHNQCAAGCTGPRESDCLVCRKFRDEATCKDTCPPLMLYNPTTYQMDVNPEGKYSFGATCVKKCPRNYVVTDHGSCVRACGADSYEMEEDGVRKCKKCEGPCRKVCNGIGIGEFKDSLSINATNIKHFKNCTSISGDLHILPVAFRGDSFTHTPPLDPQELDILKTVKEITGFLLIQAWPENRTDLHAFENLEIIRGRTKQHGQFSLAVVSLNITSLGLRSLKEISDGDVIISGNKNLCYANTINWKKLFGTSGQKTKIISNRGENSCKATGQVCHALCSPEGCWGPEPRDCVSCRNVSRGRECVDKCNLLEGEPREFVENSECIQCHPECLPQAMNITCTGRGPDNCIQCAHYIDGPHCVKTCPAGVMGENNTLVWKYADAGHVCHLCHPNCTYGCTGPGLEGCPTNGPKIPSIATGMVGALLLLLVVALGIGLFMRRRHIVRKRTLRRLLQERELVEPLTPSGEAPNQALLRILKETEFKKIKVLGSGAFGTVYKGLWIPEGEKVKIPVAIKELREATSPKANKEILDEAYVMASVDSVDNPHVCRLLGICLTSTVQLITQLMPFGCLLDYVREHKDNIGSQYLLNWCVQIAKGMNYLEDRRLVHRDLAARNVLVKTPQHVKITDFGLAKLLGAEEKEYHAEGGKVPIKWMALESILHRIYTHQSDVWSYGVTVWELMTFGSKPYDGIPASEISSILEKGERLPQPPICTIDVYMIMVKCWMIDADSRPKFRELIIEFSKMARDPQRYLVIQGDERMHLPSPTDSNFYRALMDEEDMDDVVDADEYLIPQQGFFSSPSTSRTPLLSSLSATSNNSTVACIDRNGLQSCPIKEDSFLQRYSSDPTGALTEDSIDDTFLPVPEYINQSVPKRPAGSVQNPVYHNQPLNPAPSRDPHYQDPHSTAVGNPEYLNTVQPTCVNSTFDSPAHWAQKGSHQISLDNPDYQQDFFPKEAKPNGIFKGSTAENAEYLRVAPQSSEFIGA
Chain of HER2 (A775_G776insYVMA) expressing Ba/F3 stable cell line (P04626 with tags, fused parts or gaps DUP772-775): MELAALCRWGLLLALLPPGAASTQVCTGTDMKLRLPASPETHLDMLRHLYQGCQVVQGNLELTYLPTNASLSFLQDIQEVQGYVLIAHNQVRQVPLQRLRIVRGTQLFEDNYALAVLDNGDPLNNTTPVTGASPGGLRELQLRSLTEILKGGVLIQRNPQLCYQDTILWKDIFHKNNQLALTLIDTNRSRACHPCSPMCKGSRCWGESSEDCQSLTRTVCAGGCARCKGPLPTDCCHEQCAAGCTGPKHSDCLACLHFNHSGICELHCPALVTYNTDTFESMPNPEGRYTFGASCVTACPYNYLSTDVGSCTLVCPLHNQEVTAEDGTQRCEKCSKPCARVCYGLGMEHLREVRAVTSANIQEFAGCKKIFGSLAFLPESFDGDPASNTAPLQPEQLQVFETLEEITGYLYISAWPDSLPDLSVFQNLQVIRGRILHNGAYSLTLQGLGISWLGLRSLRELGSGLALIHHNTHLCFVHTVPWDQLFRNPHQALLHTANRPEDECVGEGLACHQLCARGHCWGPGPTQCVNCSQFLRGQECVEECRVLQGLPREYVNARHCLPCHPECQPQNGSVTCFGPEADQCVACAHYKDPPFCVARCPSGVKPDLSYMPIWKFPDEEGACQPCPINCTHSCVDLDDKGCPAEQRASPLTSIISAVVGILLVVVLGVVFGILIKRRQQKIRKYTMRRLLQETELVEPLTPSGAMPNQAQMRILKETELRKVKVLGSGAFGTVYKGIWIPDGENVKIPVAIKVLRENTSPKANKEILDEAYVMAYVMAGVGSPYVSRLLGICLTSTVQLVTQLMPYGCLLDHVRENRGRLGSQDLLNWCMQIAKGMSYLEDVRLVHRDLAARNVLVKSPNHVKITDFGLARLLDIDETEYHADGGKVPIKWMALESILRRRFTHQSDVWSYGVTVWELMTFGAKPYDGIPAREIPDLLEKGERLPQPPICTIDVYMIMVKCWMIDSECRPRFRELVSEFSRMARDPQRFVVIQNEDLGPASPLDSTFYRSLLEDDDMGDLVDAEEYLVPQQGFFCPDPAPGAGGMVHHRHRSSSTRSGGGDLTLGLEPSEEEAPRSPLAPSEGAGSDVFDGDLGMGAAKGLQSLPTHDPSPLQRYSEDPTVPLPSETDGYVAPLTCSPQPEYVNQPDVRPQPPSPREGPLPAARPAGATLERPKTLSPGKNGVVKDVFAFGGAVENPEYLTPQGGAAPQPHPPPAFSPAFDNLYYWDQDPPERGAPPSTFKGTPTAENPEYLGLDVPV
Chain of EGFR (A767_dupASV) expressing Ba/F3 stable cell line (P00533 with tags, fused parts or gaps DUP767-769): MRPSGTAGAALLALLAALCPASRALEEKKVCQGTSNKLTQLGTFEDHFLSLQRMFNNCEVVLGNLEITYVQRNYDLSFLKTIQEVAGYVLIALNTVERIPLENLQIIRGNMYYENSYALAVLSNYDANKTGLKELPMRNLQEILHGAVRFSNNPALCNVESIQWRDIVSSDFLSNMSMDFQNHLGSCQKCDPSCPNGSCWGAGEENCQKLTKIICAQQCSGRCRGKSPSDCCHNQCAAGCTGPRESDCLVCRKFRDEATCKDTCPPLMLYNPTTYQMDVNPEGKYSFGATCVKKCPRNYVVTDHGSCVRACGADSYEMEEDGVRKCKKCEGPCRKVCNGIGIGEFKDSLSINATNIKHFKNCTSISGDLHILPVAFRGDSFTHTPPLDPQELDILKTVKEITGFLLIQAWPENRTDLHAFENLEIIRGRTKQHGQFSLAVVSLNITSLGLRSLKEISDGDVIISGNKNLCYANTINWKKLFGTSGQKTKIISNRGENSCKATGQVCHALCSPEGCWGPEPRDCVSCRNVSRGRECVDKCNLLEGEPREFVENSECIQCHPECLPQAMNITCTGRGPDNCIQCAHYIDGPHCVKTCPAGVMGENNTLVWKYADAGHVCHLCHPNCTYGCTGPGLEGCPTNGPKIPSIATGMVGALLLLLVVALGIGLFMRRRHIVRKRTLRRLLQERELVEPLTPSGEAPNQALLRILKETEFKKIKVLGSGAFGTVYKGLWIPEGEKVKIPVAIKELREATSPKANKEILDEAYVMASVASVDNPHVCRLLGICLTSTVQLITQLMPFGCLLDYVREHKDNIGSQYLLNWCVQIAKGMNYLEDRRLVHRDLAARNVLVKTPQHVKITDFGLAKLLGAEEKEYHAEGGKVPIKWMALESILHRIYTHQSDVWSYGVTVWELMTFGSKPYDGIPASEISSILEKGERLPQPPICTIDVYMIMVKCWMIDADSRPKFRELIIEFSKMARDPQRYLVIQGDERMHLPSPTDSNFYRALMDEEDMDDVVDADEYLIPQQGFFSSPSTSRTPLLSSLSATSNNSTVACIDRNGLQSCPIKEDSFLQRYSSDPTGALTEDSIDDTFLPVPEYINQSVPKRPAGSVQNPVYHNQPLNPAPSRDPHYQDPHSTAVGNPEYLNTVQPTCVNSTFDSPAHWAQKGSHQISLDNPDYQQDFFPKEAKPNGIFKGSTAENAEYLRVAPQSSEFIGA

Regarding `C=CC(=O)Nc1ccc(F)c(Nc2nc(Nc3cnn(C)c3)ncc2-c2ccnc(C(F)(F)F)c2)c1` [Compound 83, N-(4-fluoro-3-((2-((1-methyl-1H-pyrazol-4-yl)amino)-5-(2-(trifluoromethyl)pyridin-4-yl)pyrimidin-4-yl)amino)phenyl)acrylamide], the GI50 was 255 nM in assay [1], 61 nM in assay [2], 51 nM in assay [3] and 88 nM in assay [4]. The IC50 in the assay with A431 cells (setting [5]) stood at 53 nM.

On to `C=CC(=O)Nc1ccc(F)c(Nc2nc(Nc3cnn(C)c3)ncc2-c2cccnc2)c1` [Compound 84, N-(4-fluoro-3-((2-((1-methyl-1H-pyrazol-4-yl)amino)-5-(pyridin-3-yl)pyrimidin-4-yl)amino)phenyl)acrylamide], for which the GI50 in assay [1] amounted to 119 nM; in assay [2] it was 64 nM; in assay [3], 50 nM; in assay [4], 83 nM. In addition, the IC50 in the assay on A431 cells (A-431, 72 h, read-out: A431 IC50 (nM)) amounted to 191 nM.

Turning to `C=CC(=O)Nc1ccc(F)c(Nc2nc(Nc3cnn(C4CCN(C)CC4)c3)ncc2-c2ccc(C(F)(F)F)cc2)c1` [Compound 85, N-(4-fluoro-3-((2-((1-(1-methylpiperidin-4-yl)-1H-pyrazol-4-yl)amino)-5-(4-(trifluoromethyl)phenyl)pyrimidin-4-yl)amino)phenyl)acrylamide], the GI50 was 378 nM in assay [1], 109 nM in assay [2], 119 nM in assay [3] and 249 nM in assay [4]. For the same compound, the IC50 in the assay with A431 cells (setting [5]) was determined as 5440 nM.

Consider `C=CC(=O)Nc1ccc(F)c(Nc2nc(Nc3cn(C)nc3F)ncc2-c2ccc(C(F)(F)F)cc2)c1` [Compound 87, N-(4-fluoro-3-((2-((3-fluoro-1-methyl-1H-pyrazol-4-yl)amino)-5-(4-(trifluoromethyl)phenyl)pyrimidin-4-yl)amino)phenyl)acrylamide], for which the GI50 in assay [1] stood at 413 nM; in assay [2] it was 171 nM; in assay [3], 234 nM; in assay [4], 239 nM. The IC50 in the assay with A431 cells (setting [5]) worked out at 97 nM.

For `C=CC(=O)Nc1ccc(F)c(Nc2nc(Nc3cnn(C)c3)ncc2-c2cccc(F)c2)c1` [Compound 88, N-(4-fluoro-3-((5-(3-fluorophenyl)-2-((1-methyl-1H-pyrazol-4-yl)amino)pyrimidin-4-yl)amino)phenyl)acrylamide], the GI50 is 198 nM in assay [1], 35 nM in assay [2], 49 nM in assay [3] and 48 nM in assay [4]. The IC50 with A431 cells (setting [5]) was 929 nM.

`C=CC(=O)Nc1ccc(F)c(Nc2nc(Nc3cnn(C)c3)ncc2-c2cccc(C(F)(F)F)c2)c1` [Compound 89, N-[4-fluoro-3-({2-[(1-methyl-1H-pyrazol-4-yl)amino]-5-[3-(trifluoromethyl)phenyl]pyrimidin-4-yl}amino)phenyl]prop-2-enamide]: the GI50 in assay [1] was 665 nM; in assay [2] it was 101 nM; in assay [3], 58 nM; in assay [4], 106 nM. Besides, in the assay with A431 cells (setting [5]), the concentration for half-maximal inhibition (IC50) is 84 nM.

`C=CC(=O)Nc1ccc(F)c(Nc2nc(Nc3cnn(C)c3)ncc2-c2ccccc2F)c1` [Compound 90, N-(4-fluoro-3-((5-(2-fluorophenyl)-2-((1-methyl-1H-pyrazol-4-yl)amino)pyrimidin-4-yl)amino)phenyl)acrylamide]: the GI50 was 358 nM in assay [1], 103 nM in assay [2], 103 nM in assay [3] and 237 nM in assay [4]. Besides, the IC50 in the assay on A431 cells (setting [5]) turned out to be 320 nM.

Take `C=CC(=O)Nc1ccc(F)c(Nc2nc(Nc3cnn(C)c3)ncc2-c2ccc(OC)cc2)c1` [Compound 91, N-(4-fluoro-3-((5-(4-methoxyphenyl)-2-((1-methyl-1H-pyrazol-4-yl)amino)pyrimidin-4-yl)amino)phenyl)acrylamide]: the GI50 in assay [1] amounted to 479 nM; in assay [2] it was 62 nM; in assay [3], 91 nM; in assay [4] it was 108 nM. Also, the IC50 in the assay with A431 cells (setting [5]) was 950 nM.

For the compound `C=CC(=O)Nc1ccc(F)c(Nc2nc(Nc3cnn(C)c3)ncc2-c2ccc(OC(F)(F)F)cc2)c1` [Compound 92, N-(4-fluoro-3-((2-((1-methyl-1H-pyrazol-4-yl)amino)-5-(4-(trifluoromethoxy)phenyl)pyrimidin-4-yl)amino)phenyl)acrylamide], the GI50 in assay [1] is 612 nM; in assay [2], 102 nM; in assay [3] it was 89 nM; in assay [4], 75 nM. Moreover, the IC50 in the assay with A431 cells (setting [5]) stood at 133 nM.

As to `C=CC(=O)Nc1ccc(F)c(Nc2nc(Nc3cnn(C)c3)ncc2-c2ccccc2)c1` [Compound 93, N-(4-fluoro-3-((2-((1-methyl-1H-pyrazol-4-yl)amino)-5-phenylpyrimidin-4-yl)amino)phenyl)acrylamide], the GI50 in assay [1] was found to be 465 nM; in assay [2] it was 121 nM; in assay [3], 148 nM; in assay [4] it was 315 nM. Further, the 50% inhibitory concentration (IC50) with A431 cells (setting [5]) is greater than 10000 nM.

Turning to `C=CC(=O)Nc1ccc(F)c(Nc2nc(Nc3cnn(C)c3)ncc2-c2ccc(N3CCOCC3)cc2)c1` [Compound 94, N-(4-fluoro-3-((2-((1-methyl-1H-pyrazol-4-yl)amino)-5-(4-morpholinophenyl)pyrimidin-4-yl)amino)phenyl)acrylamide], the GI50 stood at 1270 nM in assay [1], 542 nM in assay [2], 448 nM in assay [3] and 109 nM in assay [4]. Further, the IC50 with A431 cells (setting [5]) is greater than 10000 nM.

For the compound `C=CC(=O)Nc1ccc(F)c(Nc2nc(Nc3cnn(C)c3)ncc2-c2cncc(OC(F)F)c2)c1` [Compound 95, N-(3-((5-(5-(difluoromethoxy)pyridin-3-yl)-2-((1-methyl-1H-pyrazol-4-yl)amino)pyrimidin-4-yl)amino)-4-fluorophenyl)acrylamide], the GI50 in assay [1] is 101 nM; in assay [2], 38 nM; in assay [3] it was 45 nM; in assay [4], 27 nM. Moreover, the IC50 in the assay on A431 cells (setting [5]) amounted to 102 nM.

For `C=CC(=O)Nc1ccc(F)c(Nc2nc(Nc3cnn(C)c3)ncc2-c2ccc(C(F)F)cc2)c1` [Compound 99, N-(3-((5-(4-(difluoromethyl)phenyl)-2-((1-methyl-1H-pyrazol-4-yl)amino)pyrimidin-4-yl)amino)-4-fluorophenyl)acrylamide], the GI50 in assay [1] came to 171 nM; in assay [2], 37 nM; in assay [3], 75 nM; in assay [4], 96 nM. In the assay with A431 cells (setting [5]), the IC50 was 67 nM.

Take `C=CC(=O)Nc1ccc(F)c(Nc2nc(Nc3cnn(C)c3)ncc2-c2ccc(F)nc2)c1` [Compound 100, N-(4-fluoro-3-((5-(6-fluoropyridin-3-yl)-2-((1-methyl-1H-pyrazol-4-yl)amino)pyrimidin-4-yl)amino)phenyl)acrylamide]: the GI50 was found to be 203 nM in assay [1], 38 nM in assay [2], 53 nM in assay [3] and 72 nM in assay [4]. The IC50 in the assay with A431 cells (setting [5]) worked out at 472 nM.

As to `C=CC(=O)Nc1ccc(F)c(Nc2nc(Nc3cnn(C)c3)ncc2-c2ccc(N(C)C)cc2)c1` [Compound 103, N-(3-((5-(4-(dimethylamino)phenyl)-2-((1-methyl-1H-pyrazol-4-yl)amino)pyrimidin-4-yl)amino)-4-fluorophenyl)acrylamide], the GI50 in assay [1] worked out at 461 nM; in assay [2] it was 157 nM; in assay [3] it was 281 nM; in assay [4], 287 nM. In the assay with A431 cells (setting [5]), the IC50 was determined as 493 nM.

Take `C=CC(=O)Nc1cccc(Oc2nc(Nc3cnn(C)c3)ncc2-c2cncc(C(F)(F)F)c2)c1` [Compound 104, N-(3-((2-((1-methyl-1H-pyrazol-4-yl)amino)-5-(5-(trifluoromethyl)pyridin-3-yl)pyrimidin-4-yl)oxy)phenyl)acrylamide]: the GI50 amounted to 115 nM in assay [1], 107 nM in assay [2], 101 nM in assay [3] and 104 nM in assay [4]. Also, in the assay on A431 cells (setting [5]), the IC50 turned out to be 1120 nM.

In the case of `C=CC(=O)Nc1cccc(Oc2nc(Nc3cnn(C)c3)ncc2-c2ccc(C(F)F)cc2)c1` [Compound 105, N-(3-((5-(4-(difluoromethyl)phenyl)-2-((1-methyl-1H-pyrazol-4-yl)amino)pyrimidin-4-yl)oxy)phenyl)acrylamide], the GI50 in assay [1] stood at 105 nM; in assay [2], 37 nM; in assay [3], 75 nM; in assay [4], 49 nM. The IC50 in the assay on A431 cells (setting [5]) amounted to 171 nM.

In the case of `C=CC(=O)Nc1ccc(F)c(Nc2nc(Nc3cnn(C)c3)ncc2-c2ccc(C(F)F)nc2)c1` [Compound 106, N-(3-((5-(6-(difluoromethyl)pyridin-3-yl)-2-((1-methyl-1H-pyrazol-4-yl)amino)pyrimidin-4-yl)amino)-4-fluorophenyl)acrylamide], the GI50 is 38 nM in assay [1], 16 nM in assay [2], 25 nM in assay [3] and 35 nM in assay [4]. Moreover, in the assay on A431 cells (setting [5]), the IC50 was 94 nM.

Take `C=CC(=O)Nc1cccc(Oc2nc(Nc3cnn(C)c3)ncc2-c2ccc(C(F)(F)F)nc2)c1` [Compound 108, N-(3-((2-((1-methyl-1H-pyrazol-4-yl)amino)-5-(6-(trifluoromethyl)pyridin-3-yl)pyrimidin-4-yl)oxy)phenyl)acrylamide]: the GI50 in assay [1] is 300 nM; in assay [2], 104 nM; in assay [3] it was 294 nM; in assay [4], 56 nM. Moreover, the 50% inhibitory concentration (IC50) in the assay on A431 cells (setting [5]) was 341 nM.
